Results from US20080262082A1, “COMPOSITION CONTAINING S-(-)-TULIPALIN B OR ACETYLATED-S-(-)-TULIPALIN B” (BIO SPECTRUM, INC., priority 2007, published 2008).
Where two headings read alike, the source gives them in different places.

Experiments:
Type in all cases: cell-based
[1] = system: Legionella pneumophila KCCM 41779; conditions: L. pneumophila; broth dilution, 37° C., 24 hours
[2] = system: Bacillus subtilis KCTC 1021; assay: Agar diffusion antibacterial test (aerobic); conditions: B. subtilis
[3] = system: Helicobacter pylori KCTC 5335; assay: MIC by broth dilution method; conditions: H. pylori, 37° C., 24 hours
[4] = system: Streptococcus mutans KCTC 3065; assay: MIC by broth dilution method; conditions: S. mutans, 37° C., 24 hours
[5] = system: Campylobacter jejuni KCTC 5327; assay: MIC by broth dilution method; conditions: C. jejuni, 37° C., 24 hours
[6] = system: Legionella pneumophila KCCM 41779; conditions: L. pneumophila
[7] = system: Actiinobacillus ureae KCTC 2674; assay: MIC by broth dilution method; conditions: A. ureae, 37° C., 24 hours
[8] = system: Listeria monocytogenes KCTC 3569; assay: Agar diffusion antibacterial test (aerobic); conditions: L. monocytogenes
[9] = system: Escherichia coli KCTC 1039; assay: Agar diffusion antibacterial test (aerobic); conditions: E. coli
[10] = system: Propionibacterium acne ATCC 6919; assay: Agar diffusion antibacterial test (anaerobic); conditions: P. acne
[11] = system: Corynebacterium glutamicum KCTC 1445; assay: Agar diffusion antibacterial test (anaerobic); conditions: C. glutamicum
[12] = system: Propionibacterium granulosum ATCC 25564; assay: Agar diffusion antibacterial test (anaerobic); conditions: P. granulosum
[13] = system: Campylobacter jejuni KCTC 5327; assay: Agar diffusion antibacterial test (anaerobic); conditions: C. jejuni
[14] = system: Neisseria meningitidis KCCM 41562; assay: Agar diffusion antibacterial test (aerobic); conditions: N. meningitidis
[15] = system: Helicobacter pylori KCTC 5335; assay: Agar diffusion antibacterial test (anaerobic); conditions: H. pylori
[16] = system: Yersinia enterocolitica KCCM 41657; assay: MIC by broth dilution method; conditions: Y. enterocolitica, 37° C., 24 hours
[17] = system: Actiinobacillus ureae KCTC 2674; assay: Agar diffusion antibacterial test (aerobic); conditions: A. ureae
[18] = system: Clostridium perfringens KCCM 12098; conditions: C. perfringens; broth dilution, 37° C., 24 hours
[19] = system: Pseudomonas aeruginosa KCTC 1637; assay: Agar diffusion antibacterial test (aerobic); conditions: P. aeruginosa

C=C1C(=O)OC[C@H]1O [S-(−)-tulipalin B, (4S)-4-hydroxy-3-methylene-oxolan-2-one]
MIC [1]: 0.03% | Inhibitory zone diameter ([2]; treatment concentration 0.03%): 11 mm | Inhibitory zone diameter ([2]; treatment concentration 0.1%): 13 mm | Inhibitory zone diameter ([2]; treatment concentration 0.3%): 15 mm | Inhibitory zone diameter ([2]; treatment concentration 1.0%): 17 mm | MIC [3]: 0.01% | MIC [4]: 0.10% | MIC [5]: 0.008% | Inhibitory zone diameter ([6]; treatment concentration 0.03%): 11 mm | Inhibitory zone diameter ([6]; treatment concentration 0.1%): 12 mm | Inhibitory zone diameter ([6]; treatment concentration 0.3%): 16 mm | Inhibitory zone diameter ([6]; treatment concentration 1.0%): 18 mm | MIC [7]: 0.03% | Inhibitory zone diameter ([8]; treatment concentration 0.1%): 11 mm | Inhibitory zone diameter ([8]; treatment concentration 0.3%): 13 mm | Inhibitory zone diameter ([8]; treatment concentration 1.0%): 16 mm | Inhibitory zone diameter ([9]; treatment concentration 0.01%): 10.5 mm | Inhibitory zone diameter ([9]; treatment concentration 0.03%): 11.5 mm | Inhibitory zone diameter ([9]; treatment concentration 0.1%): 13 mm | Inhibitory zone diameter ([9]; treatment concentration 0.3%): 16 mm | Inhibitory zone diameter ([9]; treatment concentration 1.0%): 20 mm | Inhibitory zone diameter ([10]; treatment concentration 0.03%): 11 mm | Inhibitory zone diameter ([10]; treatment concentration 0.1%): 13 mm | Inhibitory zone diameter ([10]; treatment concentration 0.3%): 14 mm | Inhibitory zone diameter ([10]; treatment concentration 1.0%): 16 mm | Inhibitory zone diameter ([11]; treatment concentration 0.1%): 10.5 mm | Inhibitory zone diameter ([11]; treatment concentration 0.3%): 11 mm | Inhibitory zone diameter ([11]; treatment concentration 1.0%): 12 mm | Inhibitory zone diameter ([12]; treatment concentration 0.03%): 10.5 mm | Inhibitory zone diameter ([12]; treatment concentration 0.1%): 13 mm | Inhibitory zone diameter ([12]; treatment concentration 0.3%): 15 mm | Inhibitory zone diameter ([12]; treatment concentration 1.0%): 16 mm | Inhibitory zone diameter ([13]; treatment concentration 0.01%): 11.5 mm | Inhibitory zone diameter ([13]; treatment concentration 0.03%): 13 mm | Inhibitory zone diameter ([13]; treatment concentration 0.1%): 15 mm | Inhibitory zone diameter ([13]; treatment concentration 0.3%): 16 mm | Inhibitory zone diameter ([13]; treatment concentration 1.0%): 18 mm | Inhibitory zone diameter ([14]; treatment concentration 0.03%): 11 mm | Inhibitory zone diameter ([14]; treatment concentration 0.1%): 12 mm | Inhibitory zone diameter ([14]; treatment concentration 0.3%): 16 mm | Inhibitory zone diameter ([14]; treatment concentration 1.0%): 18 mm | Inhibitory zone diameter ([15]; treatment concentration 0.01%): 10.5 mm | Inhibitory zone diameter ([15]; treatment concentration 0.03%): 12 mm | Inhibitory zone diameter ([15]; treatment concentration 0.1%): 14 mm | Inhibitory zone diameter ([15]; treatment concentration 0.3%): 16 mm | Inhibitory zone diameter ([15]; treatment concentration 1.0%): 18 mm | MIC [16]: 0.015% | Inhibitory zone diameter ([17]; treatment concentration 0.03%): 11 mm | Inhibitory zone diameter ([17]; treatment concentration 0.1%): 12 mm | Inhibitory zone diameter ([17]; treatment concentration 0.3%): 17 mm | Inhibitory zone diameter ([17]; treatment concentration 1.0%): 19 mm | MIC [18]: 0.08% | Inhibitory zone diameter ([19]; treatment concentration 0.3%): 12 mm | Inhibitory zone diameter ([19]; treatment concentration 1.0%): 14 mm
